Test results as given in US20070213339A1 (Bayer Pharmaceuticals Corporation, priority 2004, published 2007).

System: Colo205 human colon carcinoma cell line
Assay: In vitro tumor cell proliferation assay (MTS, CellTiter 96 Aqueous One Solution)
Format: cell-based
Conditions: COLO 205, Colo205 cells, 72 hours compound exposure, MTS absorbance at 490 nm, read-out: IC50 (concentration of test compound required to inhibit proliferation of 50% of the cells)
Summary of the method: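 Colo205 cells seeded at 2000 cells/well in RPMI-1640 with 10% serum, exposed to compound for 72 h at 37 °C, 5% CO2, in a 5-point dose-response up to 10-20 μM. Viability read by MTS absorbance at 490 nm; IC50 from background-corrected percent inhibition by linear regression.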

| Structure (SMILES) | IC50 [nM] |
| --- | --- |
| COc1c(N2CCN(c3ccc(F)cc3F)CC2)c(F)cc2c(=O)c(C(=O)O)cn(-c3ccc(CN4CCCC4)cc3)c12 [Example 76, 7-[4-(2,4-difluorophenyl)piperazin-1-yl]-6-fluoro-8-methoxy-4-oxo-1-[4-(pyrrolidin-1-ylmethyl)phenyl]-1,4-dihydroquinoline-3-carboxylic acid] | 500 to 2000 |
| O=C(O)c1cn(-c2cccc(CN3CCCCC3)c2)c2c(Cl)c(N3CCN(c4ccc(F)cc4F)CC3)c(F)cc2c1=O [Example 64, 8-chloro-7-[4-(2,4-difluorophenyl)piperazin-1-yl]-6-fluoro-4-oxo-1-[3-(piperidin-1-ylmethyl)phenyl]-1,4-dihydroquinoline-3-carboxylic acid] | 2000 to 20000 |
| O=C(O)c1cn(-c2ccc(CN3CCCC3)cc2F)c2c(Cl)c(N3CCN(c4ccc(Cl)cc4)CC3)c(F)cc2c1=O [Example 42, 8-chloro-7-[4-(4-chlorophenyl)piperazin-1-yl]-6-fluoro-1-[2-fluoro-4-(pyrrolidin-1-ylmethyl)phenyl]-4-oxo-1,4-dihydroquinoline-3-carboxylic acid] | < 500 |
| CC1CCCN1Cc1ccc(-n2cc(C(=O)O)c(=O)c3cc(F)c(N4CCN(c5ccc(F)cc5)CC4)c(Cl)c32)cc1 (centres unmarked) [Example 18, 8-chloro-6-fluoro-7-[4-(4-fluorophenyl)-piperazin-1-yl]-1-{4-[(2-methylpyrrolidin-1-yl)methyl]phenyl}-4-oxo-1,4-dihydroquinoline-3-carboxylic acid] | < 500 |
| O=C(O)c1cn(-c2ccc(CN3CCCC3)cc2)c2c(Cl)c(N3CCN(c4ncccc4C(F)(F)F)CC3)c(F)cc2c1=O [Example 14, 8-chloro-6-fluoro-4-oxo-1-[4-(pyrrolidin-1-yl-methyl)phenyl]-7-{4-[3-(trifluoromethyl)pyridin-2-yl]piperazin-1-yl}-1,4-dihydroquinoline-3-carboxylic acid] | 500 to 2000 |
| COc1c(N2CCN(c3ccccc3C#N)CC2)c(F)cc2c(=O)c(C(=O)O)cn(-c3ccc(CN4CCCC4)cc3)c12 [Example 81, 7-[4-(2-cyanophenyl)piperazin-1-yl]-6-fluoro-8-methoxy-4-oxo-1-[4-(pyrrolidin-1-ylmethyl)phenyl]-1,4-dihydroquinoline-3-carboxylic acid] | 500 to 2000 |
| N#Cc1cc(C(F)(F)F)ccc1N1CCN(c2c(F)cc3c(=O)c(C(=O)O)cn(-c4ccc(CN5CCCC5)cc4)c3c2Cl)CC1 [Example 5, 8-chloro-7-{4-[2-cyano-4-(trifluoromethyl)-phenyl]piperazin-1-yl}-6-fluoro-4-oxo-1-[4 (pyrrolidin-1-ylmethyl)phenyl]-1,4-dihydroquinoline-3-carboxylic acid] | 500 to 2000 |
| N#Cc1ccccc1N1CCN(c2c(F)cc3c(=O)c(C(=O)O)cn(-c4ccc(CN5CCCC5)nc4)c3c2Cl)CC1 [Example 36, 8-chloro-7-[4-(2-cyanophenyl)piperazin-1-yl]-6-fluoro-4-oxo-1-[6-(pyrrolidin-1-ylmethyl)pyridin-3-yl]-1,4-dihydroquinoline-3-carboxylic acid] | 500 to 2000 |
| COc1c(N2CCN(c3ncccn3)CC2)c(F)cc2c(=O)c(C(=O)O)cn(-c3ccc(CN4CCCC4)cc3)c12 [Example 73, 6-fluoro-8-methoxy-4-oxo-7-(4-pyrimidin-2-ylpiperazin-1-yl)-1-[4-(pyrrolidin-1-ylmethyl)phenyl]-1,4-dihydroquinoline-3-carboxylic acid] | < 500 |
| CCOc1ccccc1N1CCN(c2c(F)cc3c(=O)c(C(=O)O)cn(-c4ccc(CN5CCCC5)cc4)c3c2Cl)CC1 [Example 16, 8-chloro-7-[4-(2-ethoxyphenyl)piperazin-1-yl]-6-fluoro-4-oxo-1-[4-(pyrrolidin-1-ylmethyl)phenyl]-1,4-dihydroquinoline-3-carboxylic acid] | 500 to 2000 |
| Cc1ccccc1N1CCN(c2c(F)cc3c(=O)c(C(=O)O)cn(-c4ccc(CN5CCCC5)cc4)c3c2Cl)CC1 [Example 11, 8-chloro-6-fluoro-7-[4-(2-methylphenyl)-piperazin-1-yl]-4-oxo-1-[4-(pyrrolidin-1-ylmethyl)phenyl]-1,4-dihydroquinoline-3-carboxylic acid] | 500 to 2000 |
| O=C(O)c1cn(-c2ccc(CNC3CCCC3)cc2)c2c(Cl)c(N3CCN(c4ccccn4)CC3)c(F)cc2c1=O [Example 56, 8-chloro-1-{4-[(cyclopentylamino)-methyl]phenyl}-6-fluoro-4-oxo-7-(4-pyridin-2-ylpiperazin-1-yl)-1,4-dihydroquinoline-3-carboxylic acid] | < 500 |
| O=C(O)c1cn(-c2ccc(CN3CCCC3)nc2)c2c(Cl)c(N3CCN(c4ncccn4)CC3)c(F)cc2c1=O [Example 33, 8-chloro-6-fluoro-4-oxo-7-(4-pyrimidin-2-ylpiperazin-1-yl)-1-[6-(pyrrolidin-1-ylmethyl)pyridin-3-yl]-1,4-dihydroquinoline-3-carboxylic acid] | 2000 to 20000 |
| CN(C)CCc1ccc(-n2cc(C(=O)O)c(=O)c3cc(F)c(N4CCN(c5ccc(Cl)cc5)CC4)c(Cl)c32)cc1 [Example 70, 8-chloro-7-[4-(4-chlorophenyl)piperazin-1-yl]-1-{4-[2-(dimethylamino)ethyl]phenyl}-6-fluoro-4-oxo-1,4-dihydroquinoline-3-carboxylic acid] | 500 to 2000 |
| O=C(O)c1cn(-c2ccc(CNC3CC3)cc2)c2c(Cl)c(N3CCN(c4ccccn4)CC3)c(F)cc2c1=O [Example 59, 8-chloro-1-{4-[(cyclopropylamino)-methyl]phenyl}-6-fluoro-4-oxo-7-(4-pyridin-2-ylpiperazin-1-yl)-1,4-dihydroquinoline-3-carboxylic acid] | < 500 |

Second part, the compound after the results:

| IC50 [nM] | Structure (SMILES) |
| --- | --- |
| < 500 | O=C(O)c1cn(-c2ccc(CNCC3CC3)cc2)c2c(Cl)c(N3CCN(c4ccccn4)CC3)c(F)cc2c1=O [Example 170, 8-chloro-1-(4-{[(cyclopropylmethyl)amino]methyl}phenyl)6-fluoro-4-oxo-7-(4-pyridin-2-ylpiperazin-1-yl)-1,4-dihydroquinoline-3-carboxylic acid] |
| < 500 | CN(C)Cc1ccc(-n2cc(C(=O)O)c(=O)c3cc(F)c(N4CCN(c5ncccc5C#N)CC4)c(OC(F)(F)Cl)c32)cc1 [Example 158, 8-[chloro(difluoro)methoxy]-7-[4-(3-cyanopyridin-2-yl)piperazin-1-yl]-1-{4-[(dimethylamino)methyl]phenyl}-6-fluoro-4-oxo-1,4-dihydroquinoline-3-carboxylic acid] |
| < 500 | Cc1cccc(N2CCN(c3c(F)cc4c(=O)c(C(=O)O)cn(-c5ccc(CN6CCCC6)cc5F)c4c3Cl)CC2)n1 [Example 175, 8-chloro-6-fluoro-1-(2-fluoro-4-pyrrolidin-1-ylmethyl-phenyl)-7-[4-(6-methylpyridine-2-yl)-piperazine-1-yl]-4-oxo-1,4-dihydroquinoline-3-carboxylic acid] |
| < 500 | Cc1cccc(N2CCN(c3c(F)cc4c(=O)c(C(=O)O)cn(-c5ccc(CN6CCCC6)cc5)c4c3OC(F)(F)F)CC2)n1 [Example 120, 6-fluoro-7-[4-(6-methylpyridin-2-yl)piperazin-1-yl]-4-oxo-1-[4-(pyrrolidin-1-ylmethyl)phenyl]-8-(trifluoromethoxy)-1,4-dihydroquinoline-3-carboxylic acid] |
| < 500 | CCN(CC)Cc1ccc(-n2cc(C(=O)O)c(=O)c3cc(F)c(N4CCN(c5ccccc5C#N)CC4)c(OC)c32)cc1 [Example 117, 7-[4-(2-cyanophenyl)piperazin-1-yl]-1-{4-[(diethylamino)methyl]phenyl}-6-fluoro-8-methoxy-4-oxo-1,4-dihydroquinoline-3-carboxylic acid] |
| < 500 | CCN(CC)Cc1ccc(-n2cc(C(=O)O)c(=O)c3cc(F)c(N4CCN(c5ccccc5)CC4)c(OC(F)(F)F)c32)cc1 [Example 138, 1-{4-[(diethylamino)methyl]phenyl}-6-fluoro-4-oxo-7-(4-phenylpiperazin-1-yl)-8-(trifluoromethoxy)-1,4-dihydroquinoline-3-carboxylic acid] |
| < 500 | COc1c(N2CCN(c3ncccn3)CC2)c(F)cc2c(=O)c(C(=O)O)cn(-c3ccc(CN4CCCCC4)cc3)c12 [Example 193, 6-fluoro-8-methoxy-4-oxo-1-(4-piperidin-1-ylmethyl-phenyl)-7-(4-pyrimidine-2-yl-piperazine-1-yl]-1,4-dihydroquinoline-3-carboxylic acid] |
| 500 to 2000 | CCN(CC)Cc1ccc(-n2cc(C(=O)O)c(=O)c3cc(F)c(N4CCN(c5ccc(F)cc5F)CC4)c(OC)c32)cc1 [Example 111, 1-{4-[(diethylamino)methyl]phenyl}-7-[4-(2,4-difluorophenyl)piperazin-1-yl]-6-fluoro-8-methoxy-4-oxo-1,4-dihydroquinoline-3-carboxylic acid] |
| < 500 | O=C(O)c1cn(-c2ccc(CNC3CCCC3)cc2)c2c(OC(F)(F)Cl)c(N3CCN(c4ccc(F)cc4)CC3)c(F)cc2c1=O [Example 181, 8-(chloro-difluoromethoxy)-1-(4-cyclopentylaminomethyl-phenyl)-6-fluoro-4-oxo-7-[4(4-fluorophenyl)piperazine-1-yl]-1,4-dihydroquinoline-3-carboxylic acid] |
| 500 to 2000 | COc1cc(CNC2CCCC2)ccc1-n1cc(C(=O)O)c(=O)c2cc(F)c(N3CCN(c4ccc(F)cc4)CC3)c(Cl)c21 [Example 179, 8-chloro-1-(4-cyclopentylaminomethyl-2-methoxyphenyl)-6-fluoro-7-[4-(4-fluorophenyl)-piperazine-1-yl]-4-oxo-1,4-dihydroquinoline-3-carboxylic acid] |
| < 500 | CCN(CC)Cc1ccc(-n2cc(C(=O)O)c(=O)c3cc(F)c(N4CCN(c5ncccc5C#N)CC4)c(OC(F)(F)Cl)c32)cc1 [Example 161, 8-[chloro(difluoro)methoxy]-7-[4-(3-cyanopyridin-2-yl)piperazin-1-yl]-1-{4-[(diethylamino)methyl]phenyl}-6-fluoro-4-oxo-1,4-dihydroquinoline-3-carboxylic acid] |
